In data set [1] the test system is contact dermatitis on both hands. Also noted: species or system human. As to conditions: in vivo. An excerpt:
A person had suffered from contact dermatitis on both hands for approximately 5 to 6 years. Signs of dermatitis, such as rash, itching, crustiness, thin skin (steroids) when flexed hand would start bleeding where lines, were apparent over approximately 100 cm^2 of the right and left hands, respectively (all of palm and fingers). The individual applied a lotion comprising cytomodulin (SEQ ID NO: 1) at a concentration of about approximately 0.01% once per day at night. The amount applied was about 0.25 ml per hand. After 3-4 days healing of the dermatitis was apparent. In approximately two weeks the dermatitis was completely healed.

The next data set concerns insect bite. Also noted: species or system human. As to conditions: in vivo. An excerpt: A person reported that they were very allergic to insect bites, which usually made a large red welt, then turned purple and looked like a severe bruise, lasting for about a week.
Data set [2] relates to Mv-1-Lu mink lung epithelial cells. The experiment in a line: Inhibition of DNA synthesis (3H-thymidine incorporation) of Mv-1-Lu mink lung epithelial cells. It is filed as cell-based. As to conditions: cytomodulin at the same concentration. The protocol:
The effect of TGF-β and cytomodulin were evaluated by determining the rate of [1H]thymidine incorporation into total acid-insoluble DNA and cell number. See generally, Sampath et al., J. Biol. Chem., 267, pp. 20352-20362 (1992). DNA synthesis rates were determined in triplicate cultures after 24 hour treatment with various concentrations (10^-9 M to 10^-6 M) of either TGF-β or cytomodulin (which was synthesized by the Merrifield method) by adding [methyl-3H]thymidine (2 uCi/ml, 80 Ci/mmol) for 6 hours before the termination of the culture. Incorporation was terminated by aspiration of the medium, and after washing three times with phosphate-buffered saline, the trichloroacetic acid (10%)-precipitated radioactive DNA was extracted with 1.0% (w/v) sodium dodecyl sulfate, 0.1 M NaOH and quantitated by liquid scintillation counting. For cell number determination, 1×10^5 cells were plated in flasks in MEM containing 10% FBS, and after 24 hours, the growth medium was replaced with serum-free medium containing various conceptions of TGF-β and cytomodulin. Triplicate cultures were harvested every 24 hours for the duration of 7 days, and the cell number was determined by counting cells released by trypsin digestion in a fixed volume hemacytometer.
The numbers shown at the various concentration are the ratio of the inhibition rate of the peptide being tested over the inhibition rate of cytomodulin (SEQ ID NO: 1) at the same concentration.
For orientation: Dividing cells build labelled thymidine or BrdU into new DNA.

The next data set relates to NRK-49 F fibroblasts. Briefly: Growth and colony formation by NRK-49 F fibroblasts in soft agar. It is filed as cell-based. Here is the method: The original assay for TGF-β, the ability to promote anchorage independent growth of normal fibroblasts is still one of the hallmarks of TGF-β activity. NRK49 F fibroblasts were grown at 37° C. in DEM supplemented with 10% fetal calf serum. […] To this, either 100 nM TGF-β (positive control) or 100 nM cytomodulin was added. NRK49 F fibroblasts (5×10^4 cells/ml) were mixed with 0.3% agar were plated on the bottom of 35 mm culture dishes. Colony formation was observed starting on day 3 of culture.

The values that follow come from US20060293228A1, “Therapeutic compositions and methods using transforming growth factor-beta mimics” (priority 2005, published 2006).

Where a SMILES comes first, the peptide text is derived from it. Where no end group is shown, it is not given here.

In the case of `CC(C)[C@H](NC(=O)[C@H](CC(N)=O)NC(=O)[C@H](C)N)C(=O)N[C@@H](C)C(=O)N[C@@H](CCC(=O)O)C(=O)N[C@@H](CC(N)=O)C(=O)N[C@@H](C)C(=O)O` [cytomodulin, Ala-Asn-Val-Ala-Glu-Asn-Ala] (H-ANVAENA-OH), in data set [1], the “negative effects of application of the lotion” value is given as “No negative effects”. In addition, the adverse effects result in the data set with insect bite is on record as “no adverse effects”.
For A-N-V-A-E-K (ANVAEK) [SEQ ID NO: 15], the “Inhib by new peptide/Inhib by cytomodulin (3H-thymidine incorporation)” value (“Inhib by new peptide/Inhib” below) is on record as 0.80 in data set [2] (10 nM) and 1.00 in data set [2] (100 nM).
For the molecule L-I-A-D-A-K (LIADAK) [SEQ ID NO: 9], the “Inhib by new peptide/Inhib” value in data set [2] (1 nM) was found to be 0.45; in data set [2] (10 nM), 0.87; in data set [2] (100 nM) it was 1.14; in data set [2] (1000 nM), 1.25.
Consider L-I-A-E-A-A (LIAEAA) [SEQ ID NO: 11], for which the “Inhib by new peptide/Inhib” value in data set [2] (1 nM) worked out at 1.16; in data set [2] (10 nM), 1.00; in data set [2] (100 nM) it was 1.17; in data set [2] (1000 nM) it was 1.85.
As for L-I-A-G-E-G (LIAGEG) [SEQ ID NO: 14], the “Inhib by new peptide/Inhib” value in data set [2] (1 nM) turned out to be 0.66; in data set [2] (10 nM) it was 0.85; in data set [2] (100 nM), 1.41; in data set [2] (1000 nM), 1.88.
As to L-I-A-G-G-E (LIAGGE) [SEQ ID NO: 13], the “Inhib by new peptide/Inhib” value in data set [2] (1 nM) was determined as 1.10; in data set [2] (10 nM) it was 1.33; in data set [2] (100 nM), 1.45; in data set [2] (1000 nM) it was 1.90.
Take L-I-A-K-G-K (LIAKGK) [SEQ ID NO: 16]: the results for the “Inhib by new peptide/Inhib” value in data set [2] (10 nM) and in data set [2] (100 nM) were 0.65 and 0.67, respectively.
Regarding L-I-A-N-A-K (LIANAK) [SEQ ID NO: 10], the “Inhib by new peptide/Inhib” value in data set [2] (1 nM) came out at 1.70; in data set [2] (10 nM), 2.00; in data set [2] (100 nM) it was 1.43; in data set [2] (1000 nM), 3.05.
Regarding L-I-A-Q-A-K (LIAQAK) [SEQ ID NO: 12], the “Inhib by new peptide/Inhib” value is listed as 0.90 in data set [2] (1 nM), 1.10 in data set [2] (10 nM), 0.80 in data set [2] (100 nM) and 1.56 in data set [2] (1000 nM).
Take LIAEAK [L2]: the “growth and colony formation of NRK-49 F cells in soft agar (in words)” value with NRK-49 F fibroblasts is reported as “promoted the growth”.
For LIAPEA [L1], the “growth and colony formation of NRK-49 F cells in soft agar (in words)” value in the data set on NRK-49 F fibroblasts is “promoted the growth”.
